Measured values from patent US20180215734A1, “PYRIMIDINE DERIVATIVES AS KINASE INHIBITORS AND THEIR THERAPEUTICAL APPLICATIONS” (NantBioScience, Inc., priority 2016, published 2018).

Key:
[1] = molecular target: KDR(h) (Homo sapiens, UniProt P35968); assay: Kinase assay, KDR(h); format: biochemical
Protocol: (§1) Kinase assay protocols well known to those of ordinary skill in the art were used. Specifically, the buffer composition was as follows: 20 mM MOPS, 1 mM EDTA, 0.01% Brij-35, 5% Glycerol, 0.1% β-mercaptoethanol, 1 mg/mL BSA. Test compounds were initially dissolved in DMSO at the desired concentration, then serially diluted to the kinase assay buffer. In a final reaction volume of 25 μL FGFR1(h) (5-10 mU) and KDR(h) (5-10 mU) are incubated with 8 mM MOPS pH 7.0, 0.2 mM EDTA, 200 μM LRRASLG (Kemptide), 10 mM magnesium acetate and [γ^33P-ATP]. The reaction was initiated by the addition of the MgATP mix. After incubation for 40 minutes at room temperature, the reaction was stopped by addition of 5 μL of a 3% phosphoric acid solution. Ten L of the reaction was then spotted onto a P30 filter mat and washed three times for 5 minutes in 50 mM phosphoric acid and once in methanol prior to drying and scintillation counting. Wells containing substrate but no kinase and wells containing a phosphopeptide control were used to set 0% and 100% phosphorylation value, respectively.
(§2) Of all of the steps in developing a drug, the hardest is finding promising compounds. (See, e.g., Malo et al., “Statistical practice in high-throughput screening data analysis,” Nature Biotechnology, 2006, 24, 167-75.) Kinase inhibitors often also have an anti-proliferative effect. […] The kinase inhibitory activity Compound 19 was tested using the kinase assay described in Example 3. […] These mutations in the tested kinases are thought to play an important role in transformation of some cancers.

[2] = molecular target: FGFR1(h) (Homo sapiens, UniProt P11362); assay: Kinase assay, FGFR1(h); format: biochemical; details: 1 μM
FGFR1(h), sequence (P11362 22-822): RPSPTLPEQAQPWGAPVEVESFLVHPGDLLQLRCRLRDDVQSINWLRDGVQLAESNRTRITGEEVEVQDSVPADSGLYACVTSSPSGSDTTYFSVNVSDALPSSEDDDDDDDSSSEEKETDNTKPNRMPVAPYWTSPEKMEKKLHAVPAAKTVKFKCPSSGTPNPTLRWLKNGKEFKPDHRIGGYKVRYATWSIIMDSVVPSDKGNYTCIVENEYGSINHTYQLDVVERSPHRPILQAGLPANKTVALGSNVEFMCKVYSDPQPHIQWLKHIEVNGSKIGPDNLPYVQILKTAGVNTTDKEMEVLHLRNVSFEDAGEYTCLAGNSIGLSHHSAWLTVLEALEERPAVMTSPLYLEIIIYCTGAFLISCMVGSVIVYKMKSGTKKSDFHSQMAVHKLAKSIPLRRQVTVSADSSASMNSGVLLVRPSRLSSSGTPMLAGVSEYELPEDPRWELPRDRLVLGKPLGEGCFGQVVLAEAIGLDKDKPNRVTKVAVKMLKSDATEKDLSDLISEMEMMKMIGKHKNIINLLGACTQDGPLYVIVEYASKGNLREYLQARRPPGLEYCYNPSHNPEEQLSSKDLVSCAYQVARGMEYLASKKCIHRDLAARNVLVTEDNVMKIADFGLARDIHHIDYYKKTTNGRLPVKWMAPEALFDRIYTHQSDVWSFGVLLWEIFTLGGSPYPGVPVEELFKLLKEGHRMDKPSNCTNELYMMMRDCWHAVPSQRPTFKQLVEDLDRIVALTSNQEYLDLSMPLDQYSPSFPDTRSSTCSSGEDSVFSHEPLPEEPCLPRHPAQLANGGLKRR
Protocol: as §1, §2

[3] = test system: KG1a; assay: Inhibition of proliferation (CellTiterblue, 72 hr), KG1a; format: cell-based, human; details: Homo sapiens, KG-1a; 72 hr
Protocol: (§3) A number of studies were performed to analyze the consequences of tyrosine kinase inhibition in cell lines. To do this, 1000 cells are seeded in 27 μl/well in 384-well microplates, which are then placed in a humidified CO2 incubator at 37° C. overnight. The next day, 3 μl/well of 10× concentrated drug is added and the plates are returned to the incubator for 72 hr. After 72 hr incubation, plates are removed and 6 μl/well CellTiterblue (Promega) viability reagent is added. Plates are returned to the incubator for 3 hrs, after which fluorescence measurements are read on the Victor X3 plate reader (Perkin Elmer). Data are analyzed using Excel (Microsoft), and GI50 values are determined using Prism (Graphpad).

[4] = test system: Kato III; assay: Inhibition of proliferation (CellTiterblue, 72 hr), Kato III; format: cell-based; details: Homo sapiens, KATO III, 72 h
Protocol: as §3

[5] = test system: RT112; assay: Inhibition of proliferation (CellTiterblue, 72 hr), RT112; format: cell-based; details: Homo sapiens, RT-112, 72 h
Protocol: as §3

[6] = test system: SNU16; assay: Inhibition of proliferation (CellTiterblue, 72 hr), SNU16; format: cell-based; details: Homo sapiens, SNU-16, 72 h
Protocol: as §3

KDR(h), sequence (P35968 20-1356): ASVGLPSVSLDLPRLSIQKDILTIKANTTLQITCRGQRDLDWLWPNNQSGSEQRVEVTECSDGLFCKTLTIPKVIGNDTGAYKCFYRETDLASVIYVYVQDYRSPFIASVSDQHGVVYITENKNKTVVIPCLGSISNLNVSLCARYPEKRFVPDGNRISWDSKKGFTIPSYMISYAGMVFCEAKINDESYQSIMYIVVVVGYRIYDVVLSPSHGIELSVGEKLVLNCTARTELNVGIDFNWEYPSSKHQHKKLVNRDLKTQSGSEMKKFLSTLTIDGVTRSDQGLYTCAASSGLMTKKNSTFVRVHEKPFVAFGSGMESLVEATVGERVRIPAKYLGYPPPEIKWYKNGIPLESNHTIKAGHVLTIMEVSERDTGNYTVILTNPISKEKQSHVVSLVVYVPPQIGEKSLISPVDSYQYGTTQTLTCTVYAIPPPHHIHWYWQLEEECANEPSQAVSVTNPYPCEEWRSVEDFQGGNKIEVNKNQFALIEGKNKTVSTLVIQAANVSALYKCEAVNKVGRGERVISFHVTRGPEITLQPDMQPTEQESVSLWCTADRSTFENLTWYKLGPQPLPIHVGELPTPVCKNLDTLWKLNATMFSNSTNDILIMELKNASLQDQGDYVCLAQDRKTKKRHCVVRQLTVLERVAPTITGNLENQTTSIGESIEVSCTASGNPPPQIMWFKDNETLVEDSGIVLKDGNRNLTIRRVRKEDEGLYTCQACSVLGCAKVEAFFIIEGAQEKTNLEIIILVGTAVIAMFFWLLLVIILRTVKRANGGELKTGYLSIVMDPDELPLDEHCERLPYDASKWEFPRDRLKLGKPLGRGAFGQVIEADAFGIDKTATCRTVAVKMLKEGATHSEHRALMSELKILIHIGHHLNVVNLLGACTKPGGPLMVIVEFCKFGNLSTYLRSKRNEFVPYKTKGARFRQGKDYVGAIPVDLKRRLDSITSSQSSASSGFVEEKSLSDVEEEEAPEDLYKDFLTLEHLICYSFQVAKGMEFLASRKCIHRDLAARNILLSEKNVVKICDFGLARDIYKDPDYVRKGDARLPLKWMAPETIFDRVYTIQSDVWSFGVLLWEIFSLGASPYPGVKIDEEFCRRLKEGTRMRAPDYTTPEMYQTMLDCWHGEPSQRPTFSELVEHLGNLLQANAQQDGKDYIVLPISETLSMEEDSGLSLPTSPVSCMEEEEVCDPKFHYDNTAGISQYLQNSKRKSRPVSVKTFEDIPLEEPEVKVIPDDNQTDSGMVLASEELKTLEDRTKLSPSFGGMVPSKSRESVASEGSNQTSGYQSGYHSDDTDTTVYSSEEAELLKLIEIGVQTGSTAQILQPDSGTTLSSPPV

Structure (SMILES)	inhibition at 1 µM [1] [%]	inhibition at 1 µM [2] [%]	GI50 [3] [nM]	GI50 [4] [nM]	GI50 [5] [nM]	GI50 [6] [nM]
Cc1cc2c(F)c(Oc3ncnc(Nc4ccc(-n5ccnc5)cc4)c3C#N)ccc2[nH]1 [Compound 12]	67	56				
Cc1cc2c(F)c(Oc3ncnc(Nc4ccc(N5CCN(C)CC5)c(C(F)(F)F)c4)c3C#N)ccc2[nH]1 [Compound 7]	94	49				
Cc1cc2c(F)c(Oc3ncnc(Nc4ccc(C(=O)N(C)C)cc4)c3C#N)cc(F)c2[nH]1 [Compound 38]	73	90				
Cc1cc2c(F)c(Oc3ncnc(Nc4ccc(N5CCN(CC(F)(F)F)CC5)cc4)c3C#N)ccc2[nH]1 [Compound 18]	92	76				
Cc1cc2c(F)c(Oc3ncnc(Nc4ccc5[nH]ccc5c4)c3C#N)cc(F)c2[nH]1 [Compound 42]	96	101	35			
C=CC(=O)Nc1ccc(Nc2ncnc(Oc3cc(F)c4[nH]c(C)cc4c3F)c2C#N)cc1 [Compound 56]	94	101	5.59	106	134	24
COc1cc(N2CCN(C)CC2)ccc1Nc1ncnc(Oc2ccc3[nH]c(C)cc3c2F)c1C#N [Compound 1]	96	99	49			
Cc1cc2c(F)c(Oc3ncnc(Nc4ccc(N5C[C@@H](C)N[C@@H](C)C5)c(F)c4)c3C#N)ccc2[nH]1 [Compound 16]	96	100	15			
Cc1cc2c(F)c(Oc3ncnc(Nc4ccc(NC(=O)CN5CCOCC5)cc4)c3C#N)cc(F)c2[nH]1 [Compound 58]			101			122
Cc1cc2c(F)c(Oc3ncnc(N4CCN(C)CC4)c3C#N)ccc2[nH]1 [Compound 3]	4	1				
Cc1cc2c(F)c(Oc3ncnc(Nc4ccc([N+](=O)[O-])cc4)c3C#N)cc(F)c2[nH]1 [Compound 44]	14	41				
Cc1cc2c(F)c(Oc3ncnc(Nc4ccc(Cl)cc4)c3C#N)cc(F)c2[nH]1 [Compound 40]	20	78				
Cc1cc2c(F)c(Oc3ncnc(Nc4ccc(C)c(S(N)(=O)=O)c4)c3C#N)ccc2[nH]1 [Compound 15]	96	94				
Cc1cc2c(F)c(Oc3ncnc(Nc4ccc(N5CCCC5=O)cc4)c3C#N)cc(F)c2[nH]1 [Compound 41]	96	101	180			
Cc1cc2c(F)c(Oc3ncnc(Nc4ccc(-n5ccnc5C)cc4)c3C#N)ccc2[nH]1 [Compound 13]	85	48				
Cc1cc2c(F)c(Oc3ncnc(Nc4ccc(N5CCC(N(C)C)CC5)cc4)c3C#N)ccc2[nH]1 [Compound 11]	96	100	25			
CCN1CCN(c2ccc(Nc3ncnc(Oc4ccc5[nH]c(C)cc5c4F)c3C(F)F)cc2)CC1 [Compound 5]	9	26				
COC(=O)c1ccc(Nc2ncnc(Oc3cc(F)c4[nH]c(C)cc4c3F)c2C#N)cc1 [Compound 54]	17	89				
Cc1cc2c(F)c(Oc3ncnc(Nc4ccc(NS(C)(=O)=O)cc4)c3C#N)ccc2[nH]1 [Compound 26]	96	97				
CC(=O)N(C)c1ccc(Nc2ncnc(Oc3cc(F)c4[nH]c(C)cc4c3F)c2C#N)cc1 [Compound 32]	69	92				
Cc1cc2c(F)c(Oc3ncnc(Nc4ccc(N5CCCCC5)cc4)c3C#N)ccc2[nH]1 [Compound 24]	95	86				
CCC(=O)Nc1cccc(Nc2ncnc(Oc3cc(F)c4[nH]c(C)cc4c3F)c2C#N)c1 [Compound 52]	91	101	174			
Cc1cc2c(F)c(Oc3ncnc(Nc4ccc(N5CCNCC5)c(F)c4)c3C#N)ccc2[nH]1 [Compound 9]	96	100	314			
